{
  "source": "ChEMBL document CHEMBL4602732",
  "about": "“Optimizing Pyrazolopyrimidine Inhibitors of Calcium Dependent Protein Kinase 1 for Treatment of Acute and Chronic Toxoplasmosis” (J Med Chem, 2020)",
  "key": {"[1]": {"tested_on": "Src (human) versus Toxoplasma gondii CDPK1", "test": "Selectivity ratio of IC50 for inhibition of human Src expressed in Escherichia coli BL21 to IC50 for inhibition of Toxoplasma gondii full-length wild-type C-terminal His-tagged CDPK1 expressed in Escherichia coli BL21(DE3)V2RpAcYc-LIC+LamP", "type": "toxicity", "conditions": "read-out: Ratio IC50"}, "[2]": {"tested_on": "Toxoplasma gondii", "test": "Antiparasitic activity against Toxoplasma gondii type III CTG tachyzoites infected in HFF assessed as reduction in parasite growth", "type": "functional, organism-based"}, "[3]": {"biological_target": "Cytochrome P450 2C19 (Homo sapiens, UniProt P33261)", "sequence (P33261 whole entry)": "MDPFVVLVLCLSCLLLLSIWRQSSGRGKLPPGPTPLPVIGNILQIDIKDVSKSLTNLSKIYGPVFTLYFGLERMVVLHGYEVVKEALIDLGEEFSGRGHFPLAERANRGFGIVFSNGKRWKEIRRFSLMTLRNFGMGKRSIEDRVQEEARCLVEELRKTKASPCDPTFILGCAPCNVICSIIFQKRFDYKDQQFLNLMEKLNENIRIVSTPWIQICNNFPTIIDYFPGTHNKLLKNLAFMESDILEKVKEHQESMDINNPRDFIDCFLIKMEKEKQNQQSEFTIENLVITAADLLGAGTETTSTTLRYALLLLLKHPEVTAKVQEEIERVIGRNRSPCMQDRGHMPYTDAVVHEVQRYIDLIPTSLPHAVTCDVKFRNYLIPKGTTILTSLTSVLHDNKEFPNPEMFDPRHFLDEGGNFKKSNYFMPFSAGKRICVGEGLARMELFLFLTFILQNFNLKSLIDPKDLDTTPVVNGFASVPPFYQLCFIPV", "test": "Inhibition of CYP2C19 in human liver microsomes using S-mephenytoin as substrate measured after 10 mins by LC-MS/MS analysis", "type": "ADME"}, "[4]": {"biological_target": "T1, ALK5 (TGF-beta receptor type-1) (Homo sapiens, UniProt P36897)", "T1 sequence (P36897 whole entry)": "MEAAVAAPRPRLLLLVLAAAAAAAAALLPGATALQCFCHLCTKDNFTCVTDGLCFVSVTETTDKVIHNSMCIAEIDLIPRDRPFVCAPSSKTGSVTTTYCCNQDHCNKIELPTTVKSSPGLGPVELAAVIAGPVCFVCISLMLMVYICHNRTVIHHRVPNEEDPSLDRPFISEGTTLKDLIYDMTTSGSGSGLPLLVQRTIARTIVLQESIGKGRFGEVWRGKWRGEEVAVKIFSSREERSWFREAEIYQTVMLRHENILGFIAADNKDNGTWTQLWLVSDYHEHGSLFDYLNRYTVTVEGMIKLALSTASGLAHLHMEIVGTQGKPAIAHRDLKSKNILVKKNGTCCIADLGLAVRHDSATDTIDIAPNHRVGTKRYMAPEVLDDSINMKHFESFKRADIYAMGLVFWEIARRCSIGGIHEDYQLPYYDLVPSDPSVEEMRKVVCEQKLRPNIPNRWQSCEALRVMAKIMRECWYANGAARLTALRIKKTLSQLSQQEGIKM", "test": "Inhibition of human […] N-terminal GST-tagged ALK5 (200 to 503 residues) expressed in baculovirus expression system at 1 uM by Lanthascreen assay relative to control"}, "[5]": {"tested_on": "MDR1", "test": "Efflux ratio of apparent permeability across basolateral to apical side over apical to basolateral side in MDCK2-MDR1 cells at 2 uM measured after 150 mins by LC-MS/MS analysis", "type": "ADME, cell-based, Canis lupus familiaris", "conditions": "dog, MDCK-MDR1"}, "[6]": {"test": "Kinetic solubility of the compound in pH 7.4 phosphate buffer measured after 24 hrs by UV-HPLC analysis", "type": "physicochemical", "conditions": "pH 7.4, 24 h"}, "[7]": {"biological_target": "T2, Alpha-2A adrenergic receptor (Homo sapiens, UniProt P08913)", "T2 sequence (P08913 whole entry)": "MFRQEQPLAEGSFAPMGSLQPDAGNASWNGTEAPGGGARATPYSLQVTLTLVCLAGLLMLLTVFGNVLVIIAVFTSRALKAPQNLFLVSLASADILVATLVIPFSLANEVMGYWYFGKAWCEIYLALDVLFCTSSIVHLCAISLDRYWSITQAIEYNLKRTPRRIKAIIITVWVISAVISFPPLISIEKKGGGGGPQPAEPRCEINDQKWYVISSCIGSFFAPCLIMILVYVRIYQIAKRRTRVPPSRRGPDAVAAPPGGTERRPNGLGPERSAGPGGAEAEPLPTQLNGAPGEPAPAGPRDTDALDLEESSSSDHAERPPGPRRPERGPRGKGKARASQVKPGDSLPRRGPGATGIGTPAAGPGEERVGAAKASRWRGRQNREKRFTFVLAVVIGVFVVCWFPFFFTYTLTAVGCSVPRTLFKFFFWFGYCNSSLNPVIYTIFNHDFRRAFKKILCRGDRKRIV", "test": "Antagonist activity at recombinant human Gi/Go-coupled ADRA2A expressed in CHOK1 cells assessed as reduction in UK14304-induced inhibition of forskolin-stimulated cAMP accumulation", "type": "cell-based", "conditions": "cho-k1"}, "[8]": {"test": "Ratio of drug level in central nervous system to plasma in CD1 mouse at 10 mg/kg, po administered via gavage measured after 8 hrs by LC-MS/MS analysis", "type": "ADME, organism-based, CNS/Plasma", "conditions": "central nervous system and plasma"}, "[9]": {"test": "Time at which plasma concentration stays above in vitro EC50 for antiparasitic activity against 2F clone of type 1 Toxoplasma gondii RH tachyzoites expressing luciferase infected in HFF in CD1 mouse at 30 mg/kg, po", "type": "ADME, organism-based", "conditions": "in vivo"}, "[10]": {"tested_on": "Toxoplasma gondii", "test": "Antiparasitic activity against type 1 Toxoplasma gondii RH tachyzoites infected in CD1 mouse assessed as reduction in parasite expansion at 60 mg/kg, po administered once daily via gavage for 7 days by bioluminescence assay", "type": "functional, organism-based"}, "[11]": {"tested_on": "Toxoplasma gondii", "test": "Antiparasitic activity against type 1 Toxoplasma gondii RH tachyzoites infected in CD1 mouse assessed as reduction in parasite expansion at 15 mg/kg, po administered four times daily via gavage for 7 days by bioluminescence assay", "type": "functional, organism-based"}, "[12]": {"tested_on": "Toxoplasma gondii", "test": "Antiparasitic activity against type 1 Toxoplasma gondii RH tachyzoites infected in CD1 mouse assessed as reduction in parasite dissemination at 60 mg/kg, po administered once daily via gavage for 7 days by bioluminescence assay", "type": "functional, organism-based"}, "[13]": {"tested_on": "Toxoplasma gondii", "test": "Antiparasitic activity against type 1 Toxoplasma gondii RH tachyzoites infected in CD1 mouse assessed as reduction in parasite dissemination at 30 mg/kg, po administered twice daily via gavage for 7 days by bioluminescence assay", "type": "functional, organism-based"}, "[14]": {"tested_on": "Toxoplasma gondii", "test": "Antiparasitic activity against type 1 Toxoplasma gondii RH tachyzoites infected in CD1 mouse assessed as reduction in parasite dissemination at 15 mg/kg, po administered four times daily via gavage for 7 days by bioluminescence assay", "type": "functional, organism-based"}, "[15]": {"tested_on": "Toxoplasma gondii", "test": "Antiparasitic activity against type 1 Toxoplasma gondii RH tachyzoites infected in CD1 mouse assessed as reduction in mouse death at 60 mg/kg, po administered once daily via gavage for 7 days by bioluminescence assay", "type": "functional, organism-based"}, "[16]": {"tested_on": "Toxoplasma gondii", "test": "Antiparasitic activity against type 1 Toxoplasma gondii RH tachyzoites infected in CD1 mouse assessed as […] at 30 mg/kg, po administered twice daily via gavage for 7 days followed by lung and brain isolation on 15 days post-infection and co-culture with naive CD1 mouse", "type": "functional"}, "[17]": {"tested_on": "Toxoplasma gondii", "test": "Antiparasitic activity against type 1 Toxoplasma gondii RH tachyzoites infected in CD1 mouse assessed as […] at 15 mg/kg, po administered four times daily via gavage for 7 days followed by lung and brain isolation on 15 days post-infection and co-culture with naive CD1 mouse", "type": "functional"}, "[18]": {"tested_on": "Toxoplasma gondii", "test": "Protection against reactivation of type 2 Toxoplasma gondii ME49 infection in sulfadiazin-treated Ifngr1-/- CD1 mouse assessed as reduction in parasite infection at 60 mg/kg, po administered twice daily via gavage for 8 days measured up to 30 days by luciferase reporter gene based bioluminescence assay", "type": "functional, organism-based"}, "[19]": {"tested_on": "Toxoplasma gondii", "test": "Protection against reactivation of type 2 Toxoplasma gondii ME49 infection in sulfadiazin-treated Ifngr1-/- CD1 mouse assessed as increase in mouse survival at 60 to 120 mg/kg, po administered twice daily via gavage for 8 days measured up to 30 days", "type": "functional, organism-based"}},
  "note": "Activity calls are given as the source filed them. The rule behind the calls is not given here.",
  "data": [
    {"smiles": "Nc1ncnc2c1c(Oc1cc(C(F)(F)F)ccn1)nn2C1CC1", "values": [
      {"measurement": "selectivity ratio", "setting": "[1]", "value": "> 1000"},
      {"measurement": "EC50", "setting": "[2]", "value": 168, "unit": "nM"},
      {"measurement": "EC50", "setting": "[3]", "value": 5780, "unit": "nM"},
      {"measurement": "inhibition at 1 µM", "setting": "[4]", "value": "> 50", "unit": "%"},
      {"measurement": "efflux ratio at […], 2 µM", "setting": "[5]", "value": 0.64},
      {"measurement": "Kinetic_solubility", "setting": "[6]", "value": 191, "unit": "µM"},
      {"measurement": "inhibition (INH)", "setting": "[7]", "value": 51, "unit": "%"},
      {"measurement": "Kp at 8 h", "setting": "[8]", "value": 0.96},
      {"measurement": "T>EC50", "setting": "[9]", "value": 8, "unit": "h"},
      {"measurement": "Activity", "setting": "[10]", "value": "Active"},
      {"measurement": "Activity", "setting": "[11]", "value": "Active"},
      {"measurement": "Activity", "setting": "[12]", "value": "Active"},
      {"measurement": "Activity", "setting": "[13]", "value": "Active"},
      {"measurement": "Activity", "setting": "[14]", "value": "Active"},
      {"measurement": "Activity", "setting": "[15]", "value": "Active"},
      {"measurement": "survival at 30 mg/kg", "setting": "[16]", "value": 20, "unit": "%"},
      {"measurement": "survival at 15 mg/kg", "setting": "[17]", "value": 20, "unit": "%"},
      {"measurement": "Activity", "setting": "[18]", "value": "inactive"},
      {"measurement": "Activity", "setting": "[19]", "value": "Active"}
    ]}
  ]
}
